Test results from PubChem BioAssay AID330 (DTP/NCI, 2004).
Several values for one entry are separate records, joined by “and”; a condition that tells them apart may be missing. Identical values can stand only once. Inconclusive results and toxic doses are left out. The calls were made as follows: active = survival T/C of 150% or more; inactive = T/C below 125% in these data. Square brackets hold non-standard residues; d marks the D form. Peptide text beside a SMILES is read from it. ξ: configuration not given here. ξH = NC(Cc1c[nH]cn1)C(=O)O

System: P388 leukemia ip, CD2F1 mice, survival T/C
Assay: NCI In Vivo Anticancer Drug Screen. Data for tumor model P388 Leukemia (intraperitoneal) in CD2F1 (CDF1) mice
Details: endpoint: median survival time, higher = longer survival
How it was run: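 Mice carrying the transplanted tumor received test compound or vehicle. Survival was recorded in each group, and the value is the treated-group measurement divided by that of the vehicle-treated control group.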

[1] = dose: 50.0 mg/kg/injection, schedule: Q01DX009 (ip), vehicle: saline with Tween-80
[2] = dose: 200.0 mg/kg/injection, schedule: Q01DX009 (ip), vehicle: saline with Tween-80
[3] = dose: 50.0 mg/kg/injection, schedule: Q01DX005 (ip), vehicle: saline
[4] = dose: 12.5 mg/kg/injection, schedule: Q01DX009 (ip), vehicle: saline
[5] = dose: 25.0 mg/kg/injection, schedule: Q01DX009 (ip), vehicle: saline
[6] = dose: 50.0 mg/kg/injection, schedule: Q01DX009 (ip), vehicle: saline
[7] = dose: 100.0 mg/kg/injection, schedule: Q01DX009 (ip), vehicle: saline
[8] = dose: 200.0 mg/kg/injection, schedule: Q01DX001 (ip), vehicle: saline with Tween-80
[9] = dose: 400.0 mg/kg/injection, schedule: Q01DX001 (ip), vehicle: saline with Tween-80
[10] = dose: 50.0 mg/kg/injection, schedule: Q01DX005 (ip), vehicle: Klucel (hydroxypropylcellulose) (HPC)
[11] = dose: 100.0 mg/kg/injection, schedule: Q01DX005 (ip), vehicle: Klucel (hydroxypropylcellulose) (HPC)
[12] = dose: 200.0 mg/kg/injection, schedule: Q01DX005 (ip), vehicle: Klucel (hydroxypropylcellulose) (HPC)
[13] = dose: 60.0 mg/kg/injection, schedule: Q01DX005 (ip), vehicle: saline with Tween-80
[14] = dose: 120.0 mg/kg/injection, schedule: Q01DX005 (ip), vehicle: saline with Tween-80
[15] = dose: 25.0 mg/kg/injection, schedule: Q01DX005 (ip), vehicle: Klucel (hydroxypropylcellulose) (HPC)
[16] = dose: 240.0 mg/kg/injection, schedule: Q01DX005 (ip), vehicle: saline with Tween-80
[17] = dose: 100.0 mg/kg/injection, schedule: Q01DX009 (ip), vehicle: saline with Tween-80
[18] = dose: 50.0 mg/kg/injection, schedule: Q01DX005 (ip), vehicle: saline with Tween-80
[19] = dose: 100.0 mg/kg/injection, schedule: Q01DX005 (ip), vehicle: saline with Tween-80
[20] = dose: 200.0 mg/kg/injection, schedule: Q01DX005 (ip), vehicle: saline with Tween-80

Measured: T/C

C=C1CC[C@]2(C)CC[C@]3(C)C4=CC=C5C(=CC(=O)C(O)=C5C)[C@]4(C)CC[C@@]3(C)[C@@H]2C1
inactive: dose: 0.06 mg/kg/injection, schedule: Q01DX009 (ip), vehicle: saline with Tween-80 97 % of control | dose: 0.09 mg/kg/injection, schedule: Q01DX009 (ip), vehicle: none 93 % of control | dose: 0.12 mg/kg/injection, schedule: Q01DX009 (ip), vehicle: saline with Tween-80 103 % of control | dose: 0.19 mg/kg/injection, schedule: Q01DX009 (ip), vehicle: none 103 % of control | dose: 0.25 mg/kg/injection, schedule: Q01DX009 (ip), vehicle: saline with Tween-80 100 % of control and 103 % of control | dose: 0.5 mg/kg/injection, schedule: Q01DX009 (ip), vehicle: none 107 % of control and 98 % of control | dose: 0.5 mg/kg/injection, schedule: Q01DX009 (ip), vehicle: saline with Tween-80 103 % of control and 115 % of control | dose: 0.75 mg/kg/injection, schedule: Q01DX009 (ip), vehicle: none 103 % of control and 107 % of control | dose: 1.0 mg/kg/injection, schedule: Q01DX009 (ip), vehicle: none 110 % of control | dose: 1.0 mg/kg/injection, schedule: Q01DX009 (ip), vehicle: saline with Tween-80 112 % of control and 119 % of control | dose: 1.5 mg/kg/injection, schedule: Q01DX009 (ip), vehicle: none 105 % of control and 120 % of control and 98 % of control | dose: 2.0 mg/kg/injection, schedule: Q01DX009 (ip), vehicle: none 115 % of control and 120 % of control | dose: 3.0 mg/kg/injection, schedule: Q01DX009 (ip), vehicle: none 95 % of control

S=C1Nc2ccccc2C2CC=NN12 (stereo unspecified)
inactive: dose: 12.5 mg/kg/injection, schedule: Q01DX009 (ip), vehicle: saline with Tween-80 91 % of control | dose: 25.0 mg/kg/injection, schedule: Q01DX009 (ip), vehicle: saline with Tween-80 112 % of control | [1] 88 % of control and 96 % of control | [2] 86 % of control

C[N+]1(C[Si](C)(C)c2ccccc2)CCOCC1
inactive: dose: 12.5 mg/kg/injection, schedule: Q01DX005 (ip), vehicle: saline 105 % of control | dose: 25.0 mg/kg/injection, schedule: Q01DX005 (ip), vehicle: saline 103 % of control | [3] 102 % of control and 104 % of control

Cc1cc(C)n2ncnc2n1
inactive: [4] 105 % of control | [5] 100 % of control | [6] 100 % of control | [7] 103 % of control

COC(=O)/C(C#N)=C/Sc1ccccc1
inactive: dose: 100.0 mg/kg/injection, schedule: Q01DX001 (ip), vehicle: saline with Tween-80 101 % of control | [8] 98 % of control | [9] 97 % of control

COC(CN(Cc1cccs1)S(=O)(=O)c1ccc(C)cc1)OC
inactive: [10] 94 % of control | [11] 94 % of control | [12] 99 % of control

CCOC(=O)C(=C/C=C/N(C)C)C(=O)OCC
inactive: dose: 100.0 mg/kg/injection, schedule: Q01DX001 (ip), vehicle: saline 100 % of control | dose: 200.0 mg/kg/injection, schedule: Q01DX001 (ip), vehicle: saline 104 % of control

Cc1ccc2nc(C)cc(N=[N+]=[N-])c2c1
inactive: [13] 95 % of control | [14] 89 % of control

Cc1cc(Br)c(O)c(C(=NCC(C)N=C(c2ccccc2)c2cc(C)cc(Br)c2O)c2ccccc2)c1 (stereo unspecified)
inactive: [15] 100 % of control | [10] 96 % of control | [11] 100 % of control | [12] 96 % of control

Cc1nc2ccccc2nc1N1C(=O)c2ccccc2C1=O
inactive: [13] 97 % of control | [14] 99 % of control | [16] 95 % of control

CC(=O)NC(Cc1cnc[nH]1)C(C)=O (stereo unspecified)
inactive: [6] 100 % of control | [7] 98 % of control | dose: 200.0 mg/kg/injection, schedule: Q01DX009 (ip), vehicle: saline 104 % of control

C=CCNC(=S)Nc1ccccc1C(=O)c1ccccc1
inactive: [1] 104 % of control | [17] 103 % of control | [2] 103 % of control

c1ccc(OP(Oc2ccccc2)(c2ccccc2)(c2ccccc2)c2ccccc2)cc1
inactive: dose: 50.0 mg/kg/injection, schedule: Q01DX009 (ip), vehicle: Klucel (hydroxypropylcellulose) (HPC) 97 % of control | dose: 100.0 mg/kg/injection, schedule: Q01DX009 (ip), vehicle: Klucel (hydroxypropylcellulose) (HPC) 99 % of control | dose: 200.0 mg/kg/injection, schedule: Q01DX009 (ip), vehicle: Klucel (hydroxypropylcellulose) (HPC) 111 % of control

CC[CH2][Pb]([CH2]CC)([CH2]CC)[O]C(=O)C(F)(F)F
inactive: dose: 3.13 mg/kg/injection, schedule: Q01DX009 (ip), vehicle: saline 117 % of control

CCOC(=O)C1(C(=O)OCC)C(C)CC(=O)N1c1ccccc1OC (stereo unspecified)
inactive: [13] 104 % of control | [14] 100 % of control | [16] 95 % of control

COc1ccc(C(=O)N2C3C4C=CC(C4)C3N2C(=O)c2ccc(OC)cc2)cc1 (stereo unspecified)
inactive: [15] 99 % of control | [10] 92 % of control and 93 % of control | [11] 95 % of control | [12] 88 % of control

COC(=O)c1c(C(=O)OC)c2ccc3ccccc3n2c1-c1ccccc1
inactive: dose: 12.5 mg/kg/injection, schedule: Q01DX001 (ip), vehicle: saline with Tween-80 115 % of control | dose: 25.0 mg/kg/injection, schedule: Q01DX001 (ip), vehicle: saline with Tween-80 94 % of control | dose: 50.0 mg/kg/injection, schedule: Q01DX001 (ip), vehicle: saline with Tween-80 94 % of control | [8] 93 % of control | [9] 100 % of control

CC(C)NCC1CCc2cc(CO)c([N+](=O)[O-])cc2N1 (stereo unspecified)
inactive: [10] 105 % of control | [11] 107 % of control | [12] 106 % of control

C1=CC2C(O1)OC2c1ccc2ccccc2c1 (stereo unspecified)
inactive: dose: 7.5 mg/kg/injection, schedule: Q01DX005 (ip), vehicle: Klucel + Tween-80 114 % of control | dose: 15.0 mg/kg/injection, schedule: Q01DX005 (ip), vehicle: Klucel + Tween-80 100 % of control and 97 % of control | dose: 30.0 mg/kg/injection, schedule: Q01DX005 (ip), vehicle: Klucel + Tween-80 89 % of control | dose: 60.0 mg/kg/injection, schedule: Q01DX005 (ip), vehicle: Klucel + Tween-80 89 % of control and 97 % of control

O=C(c1ccccc1)c1ccc2c(c1)-c1ccccc1-2
inactive: [17] 100 % of control | [2] 104 % of control | dose: 400.0 mg/kg/injection, schedule: Q01DX009 (ip), vehicle: saline with Tween-80 95 % of control

CN1CCN(C(=O)CCSc2nc(-c3ccccc3)c(-c3ccccc3)o2)CC1
inactive: [6] 110 % of control | [7] 110 % of control

O=C1c2ccccc2C(=O)N1CC1CC(S(=O)(=O)c2ccccc2)=NO1 (stereo unspecified)
inactive: [18] 94 % of control | [19] 94 % of control | [20] 102 % of control

O=C(/C=C/c1ccccc1)O[C@@H]1CC2CC1C[C@@H]2c1cnc[nH]1 (stereo partly specified)
inactive: dose: 25.0 mg/kg/injection, schedule: Q04DX002 (ip), vehicle: saline with Tween-80 98 % of control | dose: 50.0 mg/kg/injection, schedule: Q04DX002 (ip), vehicle: saline with Tween-80 100 % of control | dose: 100.0 mg/kg/injection, schedule: Q04DX002 (ip), vehicle: saline with Tween-80 99 % of control

Cc1ccccc1C(=O)Nc1ccccc1-c1ccccc1N
inactive: dose: 25.0 mg/kg/injection, schedule: Q04DX003 (ip), vehicle: saline 95 % of control | dose: 50.0 mg/kg/injection, schedule: Q04DX003 (ip), vehicle: saline 99 % of control | dose: 100.0 mg/kg/injection, schedule: Q04DX003 (ip), vehicle: saline 90 % of control and 91 % of control

O=C(NC(Cc1c[nH]c2ccccc12)C(=O)NC(Cc1ccc(O)cc1)C(=O)O)OCc1ccccc1 (stereo unspecified)
inactive: [18] 101 % of control | [19] 106 % of control | [20] 89 % of control

NCC(=O)NCC(=O)NC(Cc1cnc[nH]1)C(=O)O (stereo not drawn) (H-Gly-Gly-[ξH]-OH)
inactive: [3] 103 % of control | dose: 100.0 mg/kg/injection, schedule: Q01DX005 (ip), vehicle: saline 96 % of control | dose: 200.0 mg/kg/injection, schedule: Q01DX005 (ip), vehicle: saline 104 % of control

CC/C(C)=N/NC(=S)NC
inactive: dose: 6.25 mg/kg/injection, schedule: Q01DX009 (ip), vehicle: saline 98 % of control | [4] 98 % of control | [5] 101 % of control

Cc1noc(N)c1Sc1ccc(Br)cc1
inactive: [18] 91 % of control | [19] 100 % of control | [20] 108 % of control
